From the NIST ThermoML archive (doi:10.1021/je900387e)
Numbers after ± are expanded uncertainties.

Assay: xn = mol fraction of the nth substance listed
Settings: Liquid, Pycnometric method

Cn1ccnc1 [1-methylimidazole] + O=C=O
Settings | mass density [kg/m3]
322.7 K, 12990 kPa, x1 = 0.0487 | 807 ± 4
322.7 K, 13020 kPa, x1 = 0.0247 | 755 ± 4
322.7 K, 13030 kPa, x1 = 0.0102 | 707 ± 4
322.7 K, 13120 kPa, x1 = 0.0487 | 809 ± 4
322.7 K, 13250 kPa, x1 = 0.0487 | 812 ± 4
322.7 K, 13310 kPa, x1 = 0.0247 | 762 ± 4
322.7 K, 13480 kPa, x1 = 0.0102 | 723 ± 4
322.7 K, 13500 kPa, x1 = 0.0487 | 817 ± 4
322.7 K, 13620 kPa, x1 = 0.0247 | 770 ± 4
322.7 K, 13790 kPa, x1 = 0.0487 | 822 ± 4
322.7 K, 13950 kPa, x1 = 0.0247 | 777 ± 4
322.7 K, 14040 kPa, x1 = 0.0102 | 740 ± 4
322.7 K, 14080 kPa, x1 = 0.0487 | 827 ± 4
322.7 K, 14340 kPa, x1 = 0.0247 | 786 ± 4
322.7 K, 14370 kPa, x1 = 0.0487 | 832 ± 4
322.7 K, 14510 kPa, x1 = 0.0102 | 753 ± 4
322.7 K, 14640 kPa, x1 = 0.1024 | 909 ± 4
322.7 K, 14710 kPa, x1 = 0.0487 | 838 ± 4
322.7 K, 14750 kPa, x1 = 0.0247 | 794 ± 4
322.7 K, 14780 kPa, x1 = 0.1024 | 911 ± 4
322.7 K, 14920 kPa, x1 = 0.1024 | 912 ± 4
322.7 K, 15030 kPa, x1 = 0.1024 | 913 ± 4
322.7 K, 15070 kPa, x1 = 0.0487 | 843 ± 4
322.7 K, 15180 kPa, x1 = 0.1024 | 915 ± 4
322.7 K, 15200 kPa, x1 = 0.0247 | 802 ± 4
322.7 K, 15260 kPa, x1 = 0.0102 | 771 ± 4
322.7 K, 15290 kPa, x1 = 0.1024 | 916 ± 4
322.7 K, 15430 kPa, x1 = 0.0487 | 849 ± 4
322.7 K, 15470 kPa, x1 = 0.1024 | 917 ± 4
322.7 K, 15590 kPa, x1 = 0.1024 | 918 ± 4
322.7 K, 15690 kPa, x1 = 0.0247 | 810 ± 4
322.7 K, 15860 kPa, x1 = 0.0487 | 855 ± 4
322.7 K, 15900 kPa, x1 = 0.1024 | 922 ± 4
322.7 K, 16070 kPa, x1 = 0.0247 | 816 ± 4
322.7 K, 16210 kPa, x1 = 0.0102 | 790 ± 4
322.7 K, 16230 kPa, x1 = 0.1024 | 924 ± 4
322.7 K, 16280 kPa, x1 = 0.0487 | 860 ± 4
322.7 K, 16530 kPa, x1 = 0.1024 | 927 ± 4
322.7 K, 16540 kPa, x1 = 0.0247 | 824 ± 4
322.7 K, 16700 kPa, x1 = 0.0487 | 866 ± 4
322.7 K, 16830 kPa, x1 = 0.0247 | 828 ± 4
322.7 K, 16880 kPa, x1 = 0.1024 | 929 ± 4
322.7 K, 17020 kPa, x1 = 0.0102 | 805 ± 4
322.7 K, 17160 kPa, x1 = 0.0247 | 833 ± 4
322.7 K, 17180 kPa, x1 = 0.1024 | 933 ± 4
322.7 K, 17340 kPa, x1 = 0.1024 | 934 ± 4
322.7 K, 17490 kPa, x1 = 0.0247 | 837 ± 4
322.7 K, 17570 kPa, x1 = 0.1024 | 936 ± 4
322.7 K, 17750 kPa, x1 = 0.1024 | 937 ± 4
322.7 K, 17830 kPa, x1 = 0.0247 | 842 ± 4
322.7 K, 17920 kPa, x1 = 0.1024 | 939 ± 4
322.7 K, 17960 kPa, x1 = 0.0102 | 821 ± 4
322.7 K, 18120 kPa, x1 = 0.1024 | 940 ± 4
322.7 K, 18150 kPa, x1 = 0.0102 | 824 ± 4
322.7 K, 18330 kPa, x1 = 0.1024 | 942 ± 4
322.7 K, 18570 kPa, x1 = 0.1024 | 943 ± 4
322.7 K, 18770 kPa, x1 = 0.1024 | 945 ± 4
322.7 K, 18990 kPa, x1 = 0.1024 | 946 ± 4
327.6 K, 11610 kPa, x1 = 0.0102 | 548 ± 4
327.6 K, 11720 kPa, x1 = 0.0102 | 558 ± 4
327.6 K, 11840 kPa, x1 = 0.0102 | 568 ± 4
327.6 K, 11970 kPa, x1 = 0.0102 | 578 ± 4
327.6 K, 12110 kPa, x1 = 0.0102 | 589 ± 4
327.6 K, 12270 kPa, x1 = 0.0102 | 600 ± 4
327.6 K, 12440 kPa, x1 = 0.0102 | 612 ± 4
327.6 K, 12510 kPa, x1 = 0.0247 | 682 ± 4
327.6 K, 12630 kPa, x1 = 0.0102 | 624 ± 4
327.6 K, 12630 kPa, x1 = 0.0247 | 687 ± 4
327.6 K, 12720 kPa, x1 = 0.0247 | 691 ± 4
327.6 K, 12850 kPa, x1 = 0.0102 | 636 ± 4
327.6 K, 12890 kPa, x1 = 0.0247 | 698 ± 4
